Measured values taken from patent publication EP0472573B1, “HERBICIDE RESISTANT MAIZE” (ZENECA LIMITED, priority 1989, dated 1990).

Tests used:
[1] = target: ALS enzyme extracted from Mutant 5 (heterozygous); test: ALS enzyme assay, heterozygous Mutant 5; assay type: biochemical, Zea mays; conditions: for IC50: ALS of heterozygous Mutant 5, read-out: ID50% (the source's name); for resistance group, Enzyme Assay: Mutant 5, groups Strong, Intermediate, Weak, Zero; for Fold Increase: fold increase in resistance vs wild type, heterozygous Mutant 5, 30 min
Protocol: (§1) Seeds of generation M₁BC₁ M₁BC₂ of the nine mutants were sprayed pre-emergence with the herbicide imazethapyr (PURSUIT) (Trade Mark) at a rate of 250 g/ha and grown in a growth chamber (16 hour day, 27°C; 8 hour night, 17°C). Plants were harvested after 11 days.
(§2) Four grams of leaf material were harvested from just above the first leaf axis and ground in a mortar and pestle in 20ml of a solution containing 40mM Tricine (Trade Mark), 10mM EDTA, 5mM pyruvate, 80 »M flavin adenine dinucleotide (FAD), 1mM dithiothreitol (DTT), pH 8, plus 0.8g Polyclar AT. The homogenate was pressed through four layers of muslin and centrifuged at 30,000g for 20 minutes.
(§3) The supernatant was brought to 65% saturation with ammonium sulphate, left to precipitate for 30 minutes and then centrifuged at 30.000g for 20 minutes. The pellet was resuspended in 2.5ml of 40mM Tricine, 10mM EDTA, 5mM pyruvate, 80»M FAD, 25% (v/v) glycerol, 1mM DTT, pH 8, and desalted into 3.5ml of 40mM Tricine, 10mM EDTA, 25% (v/v) glycerol, 1mM DTT, pH 8.
(§4) One hundred microlitres of the enzyme extract was used for each assay. Final reagent concentrations were: 120mM Tricine, 50mM pyruvate, 10mM MgCl₂, […], 93»M thiamine pyrophosphate (TPP), pH 8, in the presence or absence of a herbicide of interest, in a volume of 750 »l. Incubations were carried out at 37°C for 30 minutes. Reactions were stopped with 250»l of 1.84M sulphuric acid, and decarboxylation of the acetolactate carried out at 37°C for 75 minutes, or at 60°C for 30 minutes. Assay blanks had sulphuric acid added prior to the enzyme extract. To the samples and blanks 650»l of α-naphthol in 2.73M NaOH/0.16%(w/v) creatine were added followed by incubation at 37°C for 30 minutes. After centrifugation at 30,000g the optical density of the supernatant was read at 540nm.
(§5) The assay procedure described was carried out on ALS enzyme extracted from each of the nine mutants for the following herbicides: imazethapyr (PURSUIT) imazapyr (ARSENAL) imazaquin (SCEPTER) chlorsulfuron (GLEAN) chlorimuron (CLASSIC) […] (HARMONY) The enzyme activity graphs are given as Figures 3 to 8. In addition, homozygous lines of mutants 1 and 2 which were selected from generation M₁BC₁S₂, were also tested against the same group of herbicides and against representatives of the triazolopyrimidines and phenoxypyrimidines. The chemical structures of these herbicides are shown in Figure 2 of the accompanying drawings.
(§6) From the enzyme assay data it is possible to derive, as a measure of the degree of inhibition the factor ID50% for each mutant and for each herbicide. This factor is indicative of the herbicide concentration which gives 50% inhibition of the ALS activity in comparison with the wild-type control. It is also possible to derive the fold increase in resistance.

[2] = target: ALS enzyme extracted from Mutant 7 (heterozygous); test: ALS enzyme assay, heterozygous Mutant 7; assay type: biochemical, Zea mays; conditions: for IC50: ALS of heterozygous Mutant 7, read-out: ID50% (the source's name); for resistance group, Enzyme Assay: Mutant 7, groups Strong, Intermediate, Weak, Zero; for Fold Increase: fold increase in resistance vs wild type, heterozygous Mutant 7, 30 min
Protocol: as §1, §2, §3, §4, §5, §6

[3] = target: ALS enzyme extracted from Mutant 8 (heterozygous); test: ALS enzyme assay, heterozygous Mutant 8; assay type: biochemical, Zea mays; conditions: for IC50: ALS of heterozygous Mutant 8, read-out: ID50% (the source's name); for resistance group, Enzyme Assay: Mutant 8, groups Strong, Intermediate, Weak, Zero; for Fold Increase: fold increase in resistance vs wild type, heterozygous Mutant 8, 30 min
Protocol: as §1, §2, §3, §4, §5, §6

[4] = target: ALS enzyme extracted from Mutant 10 (heterozygous); test: ALS enzyme assay, heterozygous Mutant 10; assay type: biochemical, Zea mays; conditions: for IC50: ALS of heterozygous Mutant 10, read-out: ID50% (the source's name); for resistance group, Enzyme Assay: Mutant 10, groups Strong, Intermediate, Weak, Zero; for Fold Increase: fold increase in resistance vs wild type, heterozygous Mutant 10, 30 min
Protocol: as §1, §2, §3, §4, §5, §6

Mutant 9 plants = test: Cross-resistance testing (glasshouse dose response), Mutant 9; assay type: in vivo, Zea mays; conditions: pre-emergence spray, assessed after four weeks growth
From the text: The seeds used in this screen were populations of mixed tolerant and sensitive seed, segregating 1:1, derived from each of the heterogygous, tolerant mutants crossed with homozygous, sensitive UE95. All of the tolerant progeny are heterozygous for tolerance. Each of the mutants identified above were used except mutant 4. The controls were seed of self-pollinated UE95 which was pollinated in the same year as the tolerant lines.
One litre of compost was placed in each seed tray of dimensions 19cm x 11cm x 5cm deep and firmed down flat. Two furrows 1 cm deep were drawn in the surface of the compost in each tray and six seeds were sown in each furrow (total twelve seeds per tray). Some trays were sown with 24 seeds, in which case three furrows were made and 8 seeds sown per furrow.
In each test each tray contained either the seed of one mutant or of the UE95 control for each herbicide application rate and for the untreated control.
Five different types of ALS-inhibitor herbicides were tested on the mutants plus imazethapyr (PURSUIT) as a comparison. Four rates of each were applied; approximately 0.1x, 0.5x, 1x and 4x the estimated field rates for each herbicide. The rates are the same for mutant 3 to 10 but higher rates for chlorimuron (CLASSIC) and lower rates for chlorsulfuron (GLEAN) were applied to mutants 1 and 2.
The rates of application used in the screening tests were as follows: chlorimuron (CLASSIC) 4,20,40,160 g/Ha (mutants 1 and 2); and, 8,40,80,320 g/Ha (mutants 3 to 10); chlorsulfuron (GLEAN) 5,25,50,200 g/Ha (mutants 1 and 2); and, 1,5,10,40 g/Ha (mutants 3 to 10); imazaquin (SCEPTER) 30,150,300,1200 g/Ha; triazolopyrimidine 5,25,50,200 g/Ha; phenoxypyrimidine 10,50,100,400 g/Ha; and, imazethapyr (PURSUIT) 30,150,300,1200 g/Ha The triazolopyrimidine and phenoxypyrimidine were formulated in an adjuvant wetting agent known as JF5969 and diluted with water to make a final concentration of 10% JF5969. The remaining compounds were diluted with water only.
The spray jet and parameters were as decribed above under "SCREENING". After spraying, the seeds were covered with 0.5 litre of compost and firmed down flat (2.5cm covering) and grown under the conditions described under "SCREENING" above.
Visual assessments were made of the plants after four weeks growth. Each plant was scored on a scale of zero to 5 and the height measured from soil surface to the tallest leaf tip. The scoring scale was as follows: 0 - 0 to 10% damage (little or no herbicidal effect) 1 - 11 to 25% damage 2 - 26 to 50% damage 3 - 51 to […] 4 - 81 to 95% damage 5 - 96 to 100% damage (complete death of the plant) In carrying out these assessments, plants which were obviously of the sensitive phenotype were ignored (approximately 50% of the plants). […]

COc1cc(Cl)nc(NC(=O)NS(=O)(=O)c2ccccc2C(=O)O)n1 [Chlorimuron, chlorimuron]
IC50 [1]: 0.017 µM
resistance group, Enzyme Assay [1]: Weak
Fold Increase [1]: 5
IC50 [2]: 0.005 µM
resistance group, Enzyme Assay [2]: Weak
Fold Increase [2]: 1
IC50 [3]: 0.01 µM
resistance group, Enzyme Assay [3]: Zero
Fold Increase [3]: 3
IC50 [4]: 0.017 µM
resistance group, Enzyme Assay [4]: Intermediate
Fold Increase [4]: 5
resistance group, Dose Response (Mutant 9 plants): Zero

COc1nc(C)nc(NC(=O)NS(=O)(=O)c2ccccc2Cl)n1 [Chlorsulfuron, chlorsulfuron]
IC50 [1]: 0.04 µM
resistance group, Enzyme Assay [1]: Weak
Fold Increase [1]: 2
IC50 [2]: 0.008 µM
resistance group, Enzyme Assay [2]: Zero
Fold Increase [2]: 1
IC50 [3]: 0.075 µM
resistance group, Enzyme Assay [3]: Weak
Fold Increase [3]: 4
IC50 [4]: 0.035 µM
resistance group, Enzyme Assay [4]: Weak
Fold Increase [4]: 2
resistance group, Dose Response (Mutant 9 plants): Weak and Zero

CC(C)C1(C)N=C(c2nc3ccccc3cc2C(=O)O)NC1=O (stereo not shown) [Imazaquin, imazaquin]
IC50 [1]: 25 µM
resistance group, Enzyme Assay [1]: Intermediate
Fold Increase [1]: 42
IC50 [2]: 1 µM
resistance group, Enzyme Assay [2]: Weak
Fold Increase [2]: 2
IC50 [3]: 150 µM
resistance group, Enzyme Assay [3]: Strong
Fold Increase [3]: 250
IC50 [4]: 7 µM
resistance group, Enzyme Assay [4]: Weak
Fold Increase [4]: 12
resistance group, Dose Response (Mutant 9 plants): Strong

CCc1cnc(C2=NC(=O)C(C)(C(C)C)N2)c(C(=O)O)c1 (stereo not shown) [Imazethapyr, 5-ethyl-2-(5-iso-propyl-5-methyl-4-oxo-2-imidazolin-2-yl) nicotinic acid]
IC50 [1]: 125 µM
resistance group, Enzyme Assay [1]: Intermediate
Fold Increase [1]: 83
IC50 [2]: 4 µM
resistance group, Enzyme Assay [2]: Weak
Fold Increase [2]: 3
IC50 [3]: > 1000 µM
resistance group, Enzyme Assay [3]: Strong
Fold Increase [3]: >660
IC50 [4]: 15 µM
resistance group, Enzyme Assay [4]: Intermediate
Fold Increase [4]: 10
resistance group, Dose Response (Mutant 9 plants): Strong
